Laboratory results taken from US4129591A, “Ureida-phenylenebis(substituted imino)multianionic substituted dinaphthalene sulfonic acids and salts” (American Cyanamid Company, priority 1976, dated 1978).
Counter-ions that a name gives are not always drawn.

How the values were obtained:
[1] = test system: hereditary angioneurotic edema; conditions: New England Journal of Medicine, 286, 808-812 (1972); cited from earlier work
[2] = test system: complement system; conditions: literature; cited from earlier work
[3] = test system: whole complement; assay: Complement level reduction in dosed guinea pigs (capillary tube assay); type: in vivo; conditions: guinea pig, 200 mg/kg
[4] = test system: late components of human complement (C3-C9); assay: Test, Code 035 (C3-C9 inhibitor), lysis of EAC 142; type: cell-based; conditions: human C3-C9, EAC 142, in vitro
Description: (§1) An active inhibitor protects C2 from C1 and C4; (ii) Test, Code 035 (C3-C9 inhibitor) -- This test determines the ability of the late components of human complement (C3-C9) to lyse EAC 142 in the presence of appropriate dilutions of the test compound. An active inhibitor protects EAC 142 from lysis by human C3-C9; (iii) Test, Code 036 (C-Shunt inhibitor) -- In this test human erythrocytes rendered fragile are lysed in autologous serum via the shunt pathway activated by cobra venom factor in the presence of appropriate dilutions of the test compound. Inhibition of the shunt pathway results in failure of lysis; (iv) Forssman Vasculitis Test -- Here, the well known complement dependent lesion, Forssman vasculitis, is produced in guinea pigs by intradermal injection of rabbit anti-Forssman antiserum. The lesion is measured in terms of diameter, edema and hemorrhage and the extent to which a combined index of these is inhibited by prior intraperitoneal injection of the test compound at 200 mg/kg is then reported, unless otherwise stated; (v) Forssman Shock Test -- Lethal shock is produced in guinea pigs by an i.v. injection of anti-Forssman antiserum and the harmonic mean death time of treated guinea pigs is compared with that of simultaneous controls; (vi) Complement Level Reduction Test -- In this test, the above dosed guinea pigs, or others, are bled for serum and the complement level is determined in undiluted serum by the capillary tube method of U.S. Pat. No. 3,876,376 and compared to undosed control guinea pigs; and (vii) Cap 50 Test -- Here, appropriate amounts of the test compound are added to a pool of guinea pig serum in vitro, after which the undiluted serum capillary tube assay referred to above is run. The concentration of compound inhibiting 50% is reported.

[5] = molecular target: T1, activated human C1 (Homo sapiens, UniProt P09871); assay: Test, Code 026 (C1 inhibitor); type: biochemical; conditions: human C1, in vitro
T1 construct: fluid-phase human C2 cleavage in presence of C4
T1 sequence (P09871 16-688): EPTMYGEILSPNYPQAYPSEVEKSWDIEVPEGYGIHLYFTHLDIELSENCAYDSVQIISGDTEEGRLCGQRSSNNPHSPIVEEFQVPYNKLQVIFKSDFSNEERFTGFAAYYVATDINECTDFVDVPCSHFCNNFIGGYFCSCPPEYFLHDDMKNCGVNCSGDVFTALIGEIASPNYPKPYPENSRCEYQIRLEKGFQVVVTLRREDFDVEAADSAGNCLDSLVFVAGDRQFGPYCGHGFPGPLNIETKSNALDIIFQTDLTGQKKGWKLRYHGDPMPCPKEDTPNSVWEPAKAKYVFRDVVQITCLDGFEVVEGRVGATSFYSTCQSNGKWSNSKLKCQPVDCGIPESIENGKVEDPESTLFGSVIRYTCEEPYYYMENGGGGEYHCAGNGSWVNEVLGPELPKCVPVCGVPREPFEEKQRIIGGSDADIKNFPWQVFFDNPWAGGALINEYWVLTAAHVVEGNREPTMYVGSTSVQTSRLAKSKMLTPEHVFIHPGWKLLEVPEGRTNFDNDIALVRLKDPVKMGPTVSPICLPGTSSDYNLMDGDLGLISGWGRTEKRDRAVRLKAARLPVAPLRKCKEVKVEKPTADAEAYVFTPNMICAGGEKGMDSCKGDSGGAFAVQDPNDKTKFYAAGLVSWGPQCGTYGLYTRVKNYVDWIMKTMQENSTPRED
T1 sequence (P00736 18-705 partner): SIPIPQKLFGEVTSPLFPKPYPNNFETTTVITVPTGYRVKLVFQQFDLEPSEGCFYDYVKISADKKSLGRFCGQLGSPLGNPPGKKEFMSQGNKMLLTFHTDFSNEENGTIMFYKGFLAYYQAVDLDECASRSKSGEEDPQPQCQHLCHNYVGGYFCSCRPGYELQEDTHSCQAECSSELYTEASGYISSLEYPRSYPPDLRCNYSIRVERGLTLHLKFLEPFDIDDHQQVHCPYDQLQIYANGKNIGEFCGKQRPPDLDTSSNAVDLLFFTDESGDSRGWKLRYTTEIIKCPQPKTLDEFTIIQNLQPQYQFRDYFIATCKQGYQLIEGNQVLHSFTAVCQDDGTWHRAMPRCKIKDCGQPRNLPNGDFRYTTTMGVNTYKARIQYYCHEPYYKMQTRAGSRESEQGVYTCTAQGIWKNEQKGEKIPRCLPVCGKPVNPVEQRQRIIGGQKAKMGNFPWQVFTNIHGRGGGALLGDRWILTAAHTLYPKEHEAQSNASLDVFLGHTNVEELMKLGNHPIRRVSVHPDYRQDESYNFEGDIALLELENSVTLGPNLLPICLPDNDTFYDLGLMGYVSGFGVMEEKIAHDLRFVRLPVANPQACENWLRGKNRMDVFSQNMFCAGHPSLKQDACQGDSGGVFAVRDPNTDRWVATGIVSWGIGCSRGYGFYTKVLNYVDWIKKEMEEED
T1 sequence (P02745 23-245 partner): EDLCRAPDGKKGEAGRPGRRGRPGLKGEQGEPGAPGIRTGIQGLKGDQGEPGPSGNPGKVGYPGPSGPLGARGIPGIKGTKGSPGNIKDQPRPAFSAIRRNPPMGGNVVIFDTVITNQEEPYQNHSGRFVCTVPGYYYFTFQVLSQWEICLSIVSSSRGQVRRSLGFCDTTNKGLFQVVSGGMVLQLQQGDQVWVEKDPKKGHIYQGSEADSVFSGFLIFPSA
T1 sequence (P02746 28-253 partner): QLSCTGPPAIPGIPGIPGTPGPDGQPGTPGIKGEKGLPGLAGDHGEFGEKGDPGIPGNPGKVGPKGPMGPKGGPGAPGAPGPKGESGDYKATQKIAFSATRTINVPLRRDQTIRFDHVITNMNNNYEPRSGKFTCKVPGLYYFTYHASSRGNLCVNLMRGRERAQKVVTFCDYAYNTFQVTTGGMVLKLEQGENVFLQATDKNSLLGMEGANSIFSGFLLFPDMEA
T1 sequence (P02747 29-245 partner): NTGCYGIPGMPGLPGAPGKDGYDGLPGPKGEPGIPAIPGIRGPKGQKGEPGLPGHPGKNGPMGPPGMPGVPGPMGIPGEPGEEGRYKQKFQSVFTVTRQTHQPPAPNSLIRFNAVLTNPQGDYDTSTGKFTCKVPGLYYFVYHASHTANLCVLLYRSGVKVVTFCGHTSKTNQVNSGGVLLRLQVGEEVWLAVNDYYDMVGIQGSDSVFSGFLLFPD
Description: An active inhibitor protects C2 from C1 and C4; (ii) Test, Code 035 (C3-C9 inhibitor) -- This test determines the ability of the late components of human complement (C3-C9) to lyse EAC 142 in the presence of appropriate dilutions of the test compound. An active inhibitor protects EAC 142 from lysis by human C3-C9; (iii) Test, Code 036 (C-Shunt inhibitor) -- In this test human erythrocytes rendered fragile are lysed in autologous serum via the shunt pathway activated by cobra venom factor in the presence of appropriate dilutions of the test compound. Inhibition of the shunt pathway results in failure of lysis; (iv) Forssman Vasculitis Test -- Here, the well known complement dependent lesion, Forssman vasculitis, is produced in guinea pigs by intradermal injection of rabbit anti-Forssman antiserum. […]

[6] = test system: shunt pathway activated by cobra venom factor; assay: Test, Code 036 (C-Shunt inhibitor), lysis of human erythrocytes in autologous serum; type: cell-based
Description: as §1

## NC[C@H]1CC[C@H](C(=O)O)CC1 [trans-4-(aminomethyl)-cyclohexanecarboxylic acid]
[1]
  use in treatment of hereditary angioneurotic edema: used with success

## heparin
[2]
  anticomplementary effect / complement inhibition: anticomplementary effect

## Nc1ccc2cc(S(=O)(=O)O)cc(O)c2c1N=Nc1ccc(NC(=O)Nc2ccc(N=Nc3c(N)ccc4cc(S(=O)(=O)O)cc(O)c34)c(S(=O)(=O)O)c2)cc1S(=O)(=O)O [chlorazol fast pink, 3,3-(carbonyldiimino)bis[6-(2-amino-8-hydroxy-6-sulfo-1-naphthylazo)benzenesulfonic acid], tetrasodium salt]
[2]
  anticomplementary effect / complement inhibition: anticomplementary effect

## Cc1ccc(C(=O)Nc2ccc(S(=O)(=O)O)c3cc(S(=O)(=O)O)cc(S(=O)(=O)O)c23)cc1NC(=O)c1cccc(NC(=O)Nc2cccc(C(=O)Nc3cc(C(=O)Nc4ccc(S(=O)(=O)O)c5cc(S(=O)(=O)O)cc(S(=O)(=O)O)c45)ccc3C)c2)c1 [Suramin]
[2]
  anticomplementary effect / complement inhibition: competitive inhibitor of the complement system
[1]
  use in treatment of hereditary angioneurotic edema: used with success

## O=C(Nc1cc(C(=O)Nc2cc(S(=O)(=O)O)cc3cc(S(=O)(=O)O)cc(S(=O)(=O)O)c23)cc(C(=O)Nc2cc(S(=O)(=O)O)cc3cc(S(=O)(=O)O)cc(S(=O)(=O)O)c23)c1)Nc1cc(C(=O)Nc2cc(S(=O)(=O)O)cc3cc(S(=O)(=O)O)cc(S(=O)(=O)O)c23)cc(C(=O)Nc2cc(S(=O)(=O)O)cc3cc(S(=O)(=O)O)cc(S(=O)(=O)O)c23)c1 [8,8',8",8'"-[Carbonylbis[imino-5,1,3-benzenetriylbis(carbonylimino)]]tetrakis[1,3,6-naphthalenetrisulfonic acid]dodecasodium salt]
[3]; i.p., time 30
  % change in complement level: -88%
[3]; i.p., time 60
  % change in complement level: -85%
[3]; i.p., time 120
  % change in complement level: -92%
[3]; i.v., time 2
  % change in complement level: -98%
[3]; i.v., time 30
  % change in complement level: -97%
[3]; i.v., time 120
  % change in complement level: -89%
[4]
  C-Late 035* Wells: +3 Wells
[5]
  C1 026* Wells: +9 Wells
[6]
  Shunt Inhibition 036* Wells: +5 Wells

## O=C(Nc1cc(C(=O)Nc2cc(S(=O)(=O)O)cc3cc(S(=O)(=O)O)ccc23)cc(C(=O)Nc2cc(S(=O)(=O)O)cc3cc(S(=O)(=O)O)ccc23)c1)Nc1cc(C(=O)Nc2cc(S(=O)(=O)O)cc3cc(S(=O)(=O)O)ccc23)cc(C(=O)Nc2cc(S(=O)(=O)O)cc3cc(S(=O)(=O)O)ccc23)c1 [4,4',4",4'"-{Carbonylbis[imino-5,1,3-benzenetriylbis(carbonylimino)]}tetrakis[2,7-naphthalenedisulfonic acid] octasodium salt]
[4]
  C-Late 035* Wells: +1 Wells
  C-Late 035* Wells (class symbol N): N (N means inactive, O Wells)
[6]
  Shunt Inhibition 036* Wells: +3 Wells

## O=C(Nc1cc(C(=O)Nc2cc(S(=O)(=O)O)cc3cc(S(=O)(=O)O)cc(O)c23)cc(C(=O)Nc2cc(S(=O)(=O)O)cc3cc(S(=O)(=O)O)cc(O)c23)c1)Nc1cc(C(=O)Nc2cc(S(=O)(=O)O)cc3cc(S(=O)(=O)O)cc(O)c23)cc(C(=O)Nc2cc(S(=O)(=O)O)cc3cc(S(=O)(=O)O)cc(O)c23)c1 [4,4',4",4'"-[Carbonylbis[imino-5,1,3-benzenetriylbis(carbonylimino)]]tetrakis[5-hydroxy-2,7-naphthalenedisulfonic acid] octasodium salt]
[3]; i.p., time 30
  % change in complement level: -69%
[3]; i.p., time 60
  % change in complement level: -92%
[3]; i.p., time 120
  % change in complement level: -98%
[6]
  Shunt Inhibition 036* Wells: +1 Wells

## NCCCCCC(=O)O [6-aminohexanoic acid]
[1]
  use in treatment of hereditary angioneurotic edema: used with success

## O=C(Nc1cc(C(=O)Nc2ccc(S(=O)(=O)O)c3cc(S(=O)(=O)O)cc(S(=O)(=O)O)c23)cc(C(=O)Nc2ccc(S(=O)(=O)O)c3cc(S(=O)(=O)O)cc(S(=O)(=O)O)c23)c1)Nc1cc(C(=O)Nc2ccc(S(=O)(=O)O)c3cc(S(=O)(=O)O)cc(S(=O)(=O)O)c23)cc(C(=O)Nc2ccc(S(=O)(=O)O)c3cc(S(=O)(=O)O)cc(S(=O)(=O)O)c23)c1 [8,8',8",8"'-[Carbonylbis[imino-5,1,3-benzenetriylbis(carbonylimino)]]tetrakis[1-3,5-naphthalenesulfonic acid] dodecasodium salt]
[3]; i.p., time 30
  % change in complement level: -98%
[3]; i.p., time 60
  % change in complement level: -98%
